Laboratory results taken from publication PMC9416004, “A Versatile Class of 1,4,4-Trisubstituted Piperidines Block Coronavirus Replication In Vitro” (Pharmaceuticals, 2022).
Where two headings read alike, the source gives them in different places.

Assays:
HCoV-229E = test: Cytopathic effect (CPE) reduction assay with HCoV-229E in HEL cells; format: cell-based, human coronavirus 229E; conditions: for EC50: Human coronavirus 229E, 120 h, HCoV-229E-infected HEL cells, five days at 35 °C; for Selectivity Index MTS: ratio of CC50 to EC50-MTS; for Selectivity Index MTS / Selectivity Index Microscopy: only values of 10 or higher shown; for Selectivity Index Microscopy: ratio of MCC to EC50-microscopy
[1] = system: human embryonic lung (HEL) fibroblast cells; conditions: mock-infected HEL cells; microscopically visible alterations in cell morphology
in vitro = conditions: human
[2] = protection against virus-induced CPE by MTS cell viability assay, read-out: Antiviral EC50 MTS
[3] = protection against virus-induced CPE by microscopic scoring, read-out: Antiviral EC50 Microscopy

SMILES	EC50 (HCoV-229E; [2]) [µM]	EC50 (HCoV-229E; [3]) [µM]	Cytotoxicity MCC (minimal cytotoxic concentration) [1] [µM]	CC50 (in vitro) [µM]	Selectivity Index MTS (HCoV-229E)	Selectivity Index Microscopy (HCoV-229E)
CC(C)(C)OC(=O)N[C@@H](Cc1c[nH]c2ccccc12)C(=O)N(Cc1ccccc1)C1(C(=O)NCc2ccccc2)CCN(Cc2ccccc2)CC1 [Compound 47]	49 ± 12	57 ± 17	>100	> 100		
COC(=O)C[C@H](NC(=O)OC(C)(C)C)C(=O)N(Cc1ccccc1F)C1(C(=O)NCc2ccccc2)CCN(Cc2ccccc2)CC1 [Compound 26]	15 ± 2	12 ± 1	100	44 ± 1		
CC(C)(C)OC(=O)NC(Cc1ccc(Cl)cc1)C(=O)N(Cc1ccccc1)C1(C(=O)NCc2ccccc2)CCN(Cc2ccccc2)CC1 (centres unmarked) [Compound 50, Tert-butyl(1-(benzyl(1-benzyl-4-benzylcarbamoylpiperidin-4-yl)amino)-3-(4-chlorophenyl)-1-oxopropan-2-yl)carbamate]	9.7 ± 0.4	10	≥100	> 100	≥10	≥10
COC(=O)C[C@H](NC(=O)OC(C)(C)C)C(=O)N(Cc1ccc(F)cc1)C1(C(=O)NCS(=O)(=O)c2ccc(C)cc2)CCN(Cc2ccccc2)CC1 [Compound 14]	30 ± 6	57 ± 18	100	78 ± 11		
COC(=O)C[C@H](NC(=O)OC(C)(C)C)C(=O)N(Cc1ccc(F)cc1)C1(C(=O)NCc2ccccc2)CCN(Cc2cccc(F)c2)CC1 [Compound 9]	> 100	> 100	>100	> 100		
COC(=O)C[C@H](NC(=O)OC(C)(C)C)C(=O)N(Cc1ccc([N+](=O)[O-])cc1)C1(C(=O)NCc2ccccc2)CCN(Cc2ccccc2)CC1 [Compound 23]	4 ± 0.6	3.1	75	49 ± 6	12	24
COC(=O)C[C@H](NC(=O)OC(C)(C)C)C(=O)N(Cc1ccc(F)c(F)c1)C1(C(=O)NCc2ccccc2)CCN(Cc2ccccc2)CC1 [Compound 28]	3.7 ± 1	6 ± 2.6	44	23 ± 11		
COC(=O)C[C@H](NC(=O)OCc1ccccc1)C(=O)N(Cc1ccccc1)C1(C(=O)NCc2ccccc2)CCN(CCc2ccc([N+](=O)[O-])cc2)CC1 [Compound 55, Methyl(S)-4-(benzyl(4-benzylcarbamoyl-1-(4-nitrophenethyl)piperidin-4-yl)amino)-3-benzyloxycarbonylamino-4-oxobutanoate]	7.7 ± 0.9	10	60	> 100	>13	
CC(C)(C)OC(=O)NC(Cc1ccccc1)C(=O)N(Cc1ccccc1)C1(C(=O)NCc2ccccc2)CCN(Cc2ccc(Cl)cc2)CC1 (centres unmarked) [Compound 61, Tert-butyl(1-(benzyl(4-benzylcarbamoyl-1-(4-chlorobenzyl)piperidin-4-yl)amino)-1-oxo-3-phenylpropan-2-yl)carbamate]	30 ± 7	36 ± 9	>100	> 100		
COC(=O)C[C@H](NC(=O)OC(C)(C)C)C(=O)N(Cc1ccc(F)cc1)C1(C(=O)NCc2ccccc2)CCN(Cc2ccccc2)CC1 [Compound 2]	7.4 ± 2.5	7.8 ± 2.7	100	44 ± 8	6	13
CCC(C)N(C(=O)[C@H](CC(=O)OC)NC(=O)OC(C)(C)C)C1(C(=O)NCc2ccccc2)CCN(Cc2ccccc2)CC1 (some centres unmarked) [Compound 20]	13 ± 1	14 ± 1	100	31 ± 3		
COC(=O)C[C@H](NC(=O)OC(C)(C)C)C(=O)N(Cc1cccc(F)c1)C1(C(=O)NCc2ccccc2)CCN(Cc2ccccc2)CC1 [Compound 27]	14 ± 1	10 ± 3	100	46 ± 4		10
COC(=O)C[C@H](NC(=O)OC(C)(C)C)C(=O)NC1(C(=O)NCc2ccccc2)CCN(Cc2ccccc2)CC1 [Compound 18]	> 100	55 ± 16	≥100	48 ± 8		
COC(=O)C[C@H](NC(=O)OCc1ccccc1)C(=O)N(CCNc1ccccc1)C1(C(=O)NCc2ccccc2)CCN(Cc2ccccc2)CC1 [Compound 57, Methyl(S)-4-((1-benzyl-4-benzylcarbamoylpiperidin-4-yl)(2-(phenylamino)ethyl)amino)-3-benzyloxycarbonylamino-4-oxobutanoate]	7.1 ± 0.9	10	40	51 ± 9		
COC(=O)C[C@H](NC(=O)OC(C)(C)C)C(=O)N(Cc1ccc(F)cc1)C1(C(=O)NC2CCCCC2)CCN(Cc2ccccc2)CC1 [Compound 13]	> 100	> 100	>100	> 100		
COC(=O)C[C@H](NC(=O)OC(C)(C)C)C(=O)N(Cc1ccc(C(F)(F)F)cc1)C1(C(=O)NCc2ccccc2)CCN(Cc2ccccc2)CC1 [Compound 24]	4.2 ± 1	3.1	25	11 ± 1		
COC(=O)C[C@H](NC(=O)OC(C)(C)C)C(=O)N(Cc1ccccc1)C1(C(=O)NC2CCCCC2)CCN(Cc2ccccc2)CC1 [Compound 16, Methyl(S)-4-(benzyl(1-benzyl-4-cyclohexylcarbamoylpiperidin-4-yl)amino)-3-tert-butoxycarbonylamino-4-oxobutanoate]	10	16 ± 3	≥40	42 ± 4		
CC(C)(C)OC(=O)N[C@@H](CC(N)=O)C(=O)N(Cc1ccccc1)C1(C(=O)NCc2ccccc2)CCN(Cc2ccccc2)CC1 [Compound 42]	16 ± 3	13	100	40 ± 6		
COC(=O)C[C@H](NC(=O)OCc1ccccc1)C(=O)N(Cc1ccccc1)C1(C(=O)NCc2ccccc2)CCN(CCc2ccccc2)CC1 [Compound 53, Methyl(S)-4-(benzyl(4-benzylcarbamoyl-1-phenethylpiperidin-4-yl)amino)-3-benzyloxycarbonylamino-4-oxobutanoate]	5.8 ± 1.9	6.1 ± 2	40	24 ± 2		
C[C@H](NC(=O)OC(C)(C)C)C(=O)N(Cc1ccc(F)cc1)C1(C(=O)NCc2ccccc2)CCN(Cc2ccccc2)CC1 [Compound 38]	15 ± 3	12 ± 1	100	48 ± 2		
COC(=O)C[C@H](N)C(=O)N(Cc1ccc(F)cc1)C1(C(=O)NCc2ccccc2)CCN(Cc2ccccc2)CC1 [Compound 31]	2.8 ± 0.5	3.3 ± 0.2	11	4.9 ± 1.5		
COC(=O)C[C@H](NC(=O)OC(C)(C)C)C(=O)N(Cc1ccc(F)cc1)C1(C(=O)NC(C)(C)C)CCN(Cc2ccccc2)CC1 [Compound 12]	11	11	≥100	77		
CC(C)(C)OC(=O)N[C@@H](Cc1ccc(F)cc1)C(=O)N(Cc1ccccc1)C1(C(=O)NCc2ccccc2)CCN(Cc2ccccc2)CC1 [Compound 49, Tert-butyl(S)-(1-(benzyl(1-benzyl-4-benzylcarbamoylpiperidin-4-yl)amino)-3-(4-fluorophenyl)-1-oxopropan-2-yl)carbamate]	8.4	10	≥100	> 100	>12	≥10
COC(=O)C[C@H](NC(=O)OCC1c2ccccc2-c2ccccc21)C(=O)N(Cc1ccccc1)C1(C(=O)NCc2ccccc2)CCN(Cc2ccccc2)CC1 [Compound 35]	26 ± 9	36 ± 14	>100	> 100		
COC(=O)C[C@H](NC(=O)OCc1ccccc1)C(=O)N(Cc1ccccc1)C1(C(=O)NCc2ccccc2)CCN(CCc2ccc(C)cc2)CC1 [Compound 54, Methyl(S)-4-(benzyl(4-benzylcarbamoyl-1-(4-methylphenethyl)piperidin-4-yl)amino)-3-benzyloxycarbonylamino-4-oxobutanoate]	8.4 ± 0.5	10	40	24 ± 2		
CCC(C)N(C(=O)[C@H](CC(=O)OC)NC(=O)OCc1ccccc1)C1(C(=O)NCc2ccccc2)CCN(Cc2ccccc2)CC1 (some centres unmarked) [Compound 36]	6.2 ± 0.8	9.2 ± 0.5	40	27 ± 1		
COC(=O)C[C@H](NC(=O)OCc1ccccc1)C(=O)N(Cc1ccc(C)cc1)C1(C(=O)NCc2ccccc2)CCN(CCc2ccccc2)CC1 [Compound 59, Methyl(S)-4-((4-benzylcarbamoyl-1-phenethylpiperidin-4-yl)(4-methylbenzyl)amino)-3-benzyloxycarbonylamino-4-oxobutanoate]	5.1 ± 1	8.8 ± 0.7	16	15 ± 5		
COC(=O)C[C@H](NC(=O)OC(C)(C)C)C(=O)N(Cc1ccc(F)cc1)C1(C(=O)NCc2ccccc2)CCNCC1 [Compound 4]	78 ± 14	50 ± 18	100	66 ± 7		
